The values below come from ChEMBL document CHEMBL3039007, “Structure-based identification of OATP1B1/3 inhibitors” (Mol Pharmacol, 2013).

For data set [1], the target named is T1, Solute carrier organic anion transporter family member 1B1 (Homo sapiens, UniProt Q9Y6L6).
T1 sequence (Q9Y6L6 whole entry): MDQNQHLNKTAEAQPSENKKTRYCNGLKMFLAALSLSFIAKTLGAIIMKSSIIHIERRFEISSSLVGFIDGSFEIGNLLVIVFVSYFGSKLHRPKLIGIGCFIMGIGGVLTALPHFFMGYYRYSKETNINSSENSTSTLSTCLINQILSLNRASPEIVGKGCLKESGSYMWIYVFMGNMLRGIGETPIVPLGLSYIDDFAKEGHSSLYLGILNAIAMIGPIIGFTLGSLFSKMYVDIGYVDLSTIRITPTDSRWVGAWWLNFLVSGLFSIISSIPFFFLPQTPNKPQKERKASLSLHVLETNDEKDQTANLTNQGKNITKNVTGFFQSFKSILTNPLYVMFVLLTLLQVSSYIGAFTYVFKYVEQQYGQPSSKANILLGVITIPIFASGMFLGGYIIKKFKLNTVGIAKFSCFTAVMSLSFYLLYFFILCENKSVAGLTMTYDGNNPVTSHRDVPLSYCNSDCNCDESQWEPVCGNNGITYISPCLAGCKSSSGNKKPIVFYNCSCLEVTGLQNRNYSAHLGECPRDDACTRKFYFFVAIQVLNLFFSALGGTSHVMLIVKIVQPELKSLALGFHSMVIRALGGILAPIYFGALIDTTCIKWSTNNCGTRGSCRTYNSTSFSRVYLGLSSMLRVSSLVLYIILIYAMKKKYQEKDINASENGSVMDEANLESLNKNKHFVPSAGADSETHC
Conditions: chinese hamster, cho, 10 µM.

Data set [2] addresses T2, Solute carrier organic anion transporter family member 1B3 (Homo sapiens, UniProt Q9NPD5).
T2 sequence (Q9NPD5 whole entry): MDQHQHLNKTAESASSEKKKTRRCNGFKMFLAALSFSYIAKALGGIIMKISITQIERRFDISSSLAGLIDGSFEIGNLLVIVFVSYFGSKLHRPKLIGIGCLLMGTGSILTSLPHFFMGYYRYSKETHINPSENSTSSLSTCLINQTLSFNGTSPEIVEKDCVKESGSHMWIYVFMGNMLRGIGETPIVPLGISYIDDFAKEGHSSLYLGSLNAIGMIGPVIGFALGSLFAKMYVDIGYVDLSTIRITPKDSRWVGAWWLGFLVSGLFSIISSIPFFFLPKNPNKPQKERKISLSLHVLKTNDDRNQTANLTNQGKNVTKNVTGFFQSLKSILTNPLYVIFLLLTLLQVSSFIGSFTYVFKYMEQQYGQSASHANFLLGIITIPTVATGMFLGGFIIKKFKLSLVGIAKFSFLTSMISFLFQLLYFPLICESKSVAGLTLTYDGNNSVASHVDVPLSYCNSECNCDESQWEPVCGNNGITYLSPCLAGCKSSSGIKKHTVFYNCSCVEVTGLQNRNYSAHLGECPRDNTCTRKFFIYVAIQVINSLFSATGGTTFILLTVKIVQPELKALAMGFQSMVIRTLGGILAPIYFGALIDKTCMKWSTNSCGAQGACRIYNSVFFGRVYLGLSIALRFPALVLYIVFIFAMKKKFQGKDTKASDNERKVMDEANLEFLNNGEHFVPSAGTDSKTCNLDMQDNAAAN
Conditions: chinese hamster, cho, 10 µM.

Residues, ends and D or L forms follow the SMILES beside them.

For the compound `Cc1cc(OC(=O)c2c(C)cc(O)cc2O)cc(O)c1C(=O)O` [LECANORIC ACID], the residual activity – broadly, the signal under treatment as a percentage of the control signal – in data set [1] is reported as 61.21%; in data set [2] it was 60.79%.

For the compound `CC(C)C[C@H](N)C(=O)N[C@@H](C)C(=O)O` [LEU-ALA] (H-Leu-Ala-OH), the residual activity in data set [1] was 93.04%; in data set [2] it was 96.54%.

Regarding `N=c1[nH]c(=O)c2[nH]c(=O)c(=O)[nH]c2[nH]1` [LEUCOPTERIN], the residual activity in data set [1] is reported as 136.6%; in data set [2], 98.11%.

Regarding `Nc1nc(=O)c2c([nH]1)NCC(CNc1ccc(C(=O)N[C@@H](CCC(=O)[O-])C(=O)[O-])cc1)N2C=O.[Ca+2]` (some centres not stated) [LEUCOVORIN CALCIUM], the residual activity turned out to be 80.81% in data set [1] and 90.54% in data set [2].

As to `CC(C)(C)NC[C@H](O)c1ccc(O)c(CO)c1.Cl` [LEVALBUTEROL HYDROCHLORIDE], the figures for the residual activity in data set [1] and in data set [2] were 95.04% and 85.66%, respectively.

As to `Cl.c1ccc([C@H]2CN3CCSC3=N2)cc1` [LEVAMISOLE HYDROCHLORIDE], the residual activity in data set [1] is 121.8%; in data set [2], 102.9%.

In the case of `N[C@@H](Cc1ccc(O)c(O)c1)C(=O)O` [LEVODOPA], the residual activity is recorded as 86.05% in data set [1] and 90.65% in data set [2].

As to `C[C@H]1COc2c(N3CCN(C)CC3)c(F)cc3c(=O)c(C(=O)O)cn1c23.C[C@H]1COc2c(N3CCN(C)CC3)c(F)cc3c(=O)c(C(=O)O)cn1c23.O` [LEVOFLOXACIN], the residual activity in data set [1] was 117.4%; in data set [2], 95.07%.

For `CC(C)=CCC[C@](C)(O)[C@@H]1CC=C(C)CC1` [LEVOMENOL], the results for the residual activity in data set [1] and in data set [2] were 83.39% and 97.78%, respectively.

For `C[C@H](N)[C@H](O)c1ccc(O)c(O)c1` [LEVONORDEFRIN], the figures for the residual activity in data set [1] and in data set [2] were 58.62% and 80.26%, respectively.

Regarding `CC(=O)/C(=C\c1ccccc1)CC(=O)O` [LEVULINIC ACID,  3-BENZYLIDENYL-], the figures for the residual activity in data set [1] and in data set [2] were 134.7% and 110.1%, respectively.

Take `CCC/C=C1\OC(=O)C2=C1CCC=C2` [LIGUSTILIDE]: the residual activity in data set [1] turned out to be 117.7%; in data set [2], 107.5%.

For the compound `CC1(C)O[C@H]2CC(=O)OC[C@]23[C@H]2CC[C@@]4(C)[C@H](c5ccoc5)OC(=O)[C@H]5O[C@]54[C@]2(C)C(=O)C[C@@H]13` [LIMONIN], the figures for the residual activity in data set [1] and in data set [2] were 102.2% and 92.09%, respectively.

For the compound `C=C[C@](C)(O)CCC=C(C)C` [LINALOOL (+)], the residual activity in data set [1] worked out at 102.5%; in data set [2], 117.7%.

Consider `CC(C)(C#N)O[C@@H]1O[C@H](CO)[C@@H](O)[C@H](O)[C@H]1O` [LINAMARIN], for which the residual activity came out at 131.3% in data set [1] and 97.67% in data set [2].

Turning to `CCC[C@@H]1C[C@@H](C(=O)N[C@@H]([C@H]2O[C@H](SC)[C@H](O)[C@@H](O)[C@H]2O)[C@@H](C)O)N(C)C1.Cl.O` [LINCOMYCIN HYDROCHLORIDE], the residual activity worked out at 83.01% in data set [1] and 97.7% in data set [2].

As for `Cl[C@H]1[C@H](Cl)[C@@H](Cl)[C@@H](Cl)[C@H](Cl)[C@H]1Cl` [LINDANE], the residual activity in data set [1] is recorded as 79.82%; in data set [2], 90.09%.

On to `O=C(O)CCCCC1CCSS1` (stereo not drawn) [LIPOIC ACID, ALPHA], for which the values for the residual activity in data set [1] and in data set [2] were 129.1% and 103.3%, respectively.

On to `COc1ccc(C2CC(=O)c3ccc(OC)cc3O2)cc1` (configuration not stated) [LIQUIRITIGENIN DIMETHYL ETHER], for which the results for the residual activity in data set [1] and in data set [2] were 104.2% and 114.3%, respectively.

With `C[C@H](CCC(=O)O)[C@H]1CC[C@H]2[C@@H]3CC[C@@H]4C[C@H](O)CC[C@]4(C)[C@H]3CC[C@]12C` [LITHOCHOLIC ACID], the residual activity in data set [1] is given as 6.612%; in data set [2], 60.21%.

In the case of `CN1[C@@H](CC(=O)c2ccccc2)CCC[C@H]1C[C@H](O)c1ccccc1.Cl` [LOBELINE HYDROCHLORIDE], the residual activity in data set [1] stood at 125.6%; in data set [2] it was 108.5%.

Consider `C[C@@H]1[C@H]2[C@H](O[C@@H]3O[C@H](CO)[C@@H](O)[C@H](O)[C@H]3O)OC=C(C(=O)O)[C@H]2C[C@@H]1O` [LOGANIC ACID], for which the residual activity in data set [1] is reported as 49.18%; in data set [2], 99.49%.

As to `COC(=O)C1=CO[C@@H](O[C@@H]2O[C@H](CO)[C@@H](O)[C@H](O)[C@H]2O)[C@@H]2[C@@H](C)[C@@H](O)C[C@H]12` [LOGANIN], the residual activity in data set [1] was 98.87%; in data set [2] it was 87.42%.

Regarding `CC1(C)Oc2ccc3ccc(=O)oc3c2CC1O` (configuration not stated) [LOMATIN], the residual activity in data set [1] amounted to 92.91%; in data set [2], 142.3%.

In the case of `COc1c2c(c(CC=C(C)C)c3oc(=O)c(-c4ccc(O)cc4)c(O)c13)OC(C)(C)C=C2` [LONCHOCARPIC ACID], the residual activity in data set [1] stood at 26.49%; in data set [2], 36.3%.

Consider `O=C(O)c1nn(Cc2ccc(Cl)cc2Cl)c2ccccc12` [LONIDAMINE], for which the residual activity was 129% in data set [1] and 108% in data set [2].

In the case of `CN(C)C(=O)C(CCN1CCC(O)(c2ccc(Cl)cc2)CC1)(c1ccccc1)c1ccccc1.Cl` [LOPERAMIDE HYDROCHLORIDE], the residual activity in data set [1] is on record as 51.98%; in data set [2], 94.1%.

`CCCCc1nc(Cl)c(CO)n1Cc1ccc(-c2ccccc2-c2nn[nH]n2)cc1` [LOSARTAN]: the residual activity turned out to be 23.21% in data set [1] and 3.759% in data set [2].

On to `CN1CCN(C2=Nc3ccccc3Oc3ccc(Cl)cc32)CC1.O=C(O)CCC(=O)O` [LOXAPINE SUCCINATE], for which the figures for the residual activity in data set [1] and in data set [2] were 140.7% and 117.8%, respectively.

`O=C(NC(=O)c1c(F)cccc1F)Nc1cc(Cl)c(OC(F)(F)C(F)C(F)(F)F)cc1Cl` (configuration not stated) [LUFENURON]: the residual activity in data set [1] is 102.8%; in data set [2], 97.09%.

With `Cl.O=C(O)CCC1NCC2CC1CN1CCCCC21` (configuration not stated) [LUPANYL ACID HYDROCHLORIDE], the residual activity in data set [1] was 104.4%; in data set [2], 103.3%.

Regarding `OC[C@@H]1CCCN2CCCC[C@H]12` [LUPININE], the residual activity in data set [1] is given as 114.4%; in data set [2] it was 90.27%.

As to `O[C@H]1[C@H]2c3cc4c(cc3CN3CCC(=C[C@@H]1O)[C@H]23)OCO4` [LYCORINE], the residual activity in data set [1] is given as 60.96%; in data set [2] it was 97.14%.

Take `NCCCC[C@H](NC(=O)[C@H](Cc1ccc(O)cc1)NC(=O)[C@@H](N)CCCCN)C(=O)O` [LYSYL-TYROSYL-LYSINE ACETATE] (H-Lys-Tyr-Lys-OH): the figures for the residual activity in data set [1] and in data set [2] were 85.47% and 124.3%, respectively.

Consider `NCCCC[C@H](N)C(=O)N[C@@H](Cc1ccccc1)C(=O)N[C@@H](Cc1ccc(O)cc1)C(=O)O` [LYSYLPHENYLALANYLTYROSINE] (H-Lys-Phe-Tyr-OH), for which the values for the residual activity in data set [1] and in data set [2] were 100.8% and 112.2%, respectively.

Regarding `Oc1ccc2c(c1)OC[C@H]1c3cc4c(cc3O[C@@H]21)OCO4` [MAACKIAIN], the figures for the residual activity in data set [1] and in data set [2] were 108.2% and 114.4%, respectively.
